Source: USRE48461E1, “Modulation of androgen receptor expression” (Ionis Pharmaceuticals, Inc., priority 2012, dated 2021)

Legend:
[1] = cynomolgus monkey, in vivo, sc, 40 mg/kg
[2] = cynomolgus monkey, in vivo, sc, 40 mg/kg; remark: listed apart in the source
[3] = cynomolgus monkey, in vivo, sc, 40 mg/kg; remark: listed apart in the source
[4] = cynomolgus monkey, in vivo, sc, 40 mg/kg; remark: listed apart in the source
Experimental: (§1) Prior to the study, the monkeys were kept in quarantine for a 30-day period, during which the animals were observed daily for general health. The monkeys were 2-4 years old and weighed between 2 and 4 kg. Thirteen groups of four randomly assigned male cynomolgus monkeys each were injected subcutaneously with ISIS oligonucleotide or PBS. PBS solution or ISIS oligonucleotides, at a dose of 40 mg/kg, were administered with a loading regimen consisting of four doses on the first week of the study (days 1, 3, 5, and 7), followed by a maintenance regimen consisting of once weekly administration starting on Day 14 (weeks 2 to 6). Subcutaneous injections were performed in clock-wise rotations at 4 sites on the back; one site per dose. The injection sites were delineated by tattoo, while sedated using ketamine, and were separated by a minimum of 3 cm.
To evaluate the effect of ISIS oligonucleotides on kidney function, the monkeys were fasted overnight. Approximately, 1.5 mL of blood samples were collected from all the study groups on day 44. Blood was collected in tubes without anticoagulant for serum separation. The tubes were kept at room temperature for a minimum of 90 min and then centrifuged at 3,000 rpm for 10 min. Levels of BUN and creatinine were measured using a Toshiba 120FR NEO chemistry analyzer (Toshiba Co., Japan).

[5] = cynomolgus monkey, in vivo, sc, 40 mg/kg; remark: listed apart in the source
Experimental: as §1
Kidney function was also assessed by urinalysis. Fresh urine from all animals was collected on day 44 using a clean cage pan on wet ice. Food was removed overnight the day before fresh urine collection was done but water was supplied. The total protein and creatinine levels were measured using a Toshiba 120FR NEO automated chemistry analyzer (Toshiba Co., Japan) and the protein to creatinine ratio was calculated.

[6] = cynomolgus monkey, in vivo, sc, 40 mg/kg; remark: listed apart in the source
Experimental: The monkeys were 2-4 years old and weighed between 2 and 4 kg. Thirteen groups of four randomly assigned male cynomolgus monkeys each were injected subcutaneously with ISIS oligonucleotide or PBS. PBS solution or ISIS oligonucleotides, at a dose of 40 mg/kg, were administered with a loading regimen consisting of four doses on the first week of the study (days 1, 3, 5, and 7), followed by a maintenance regimen consisting of once weekly administration starting on Day 14 (weeks 2 to 6). Subcutaneous injections were performed in clock-wise rotations at 4 sites on the back; one site per dose. The injection sites were delineated by tattoo, while sedated using ketamine, and were separated by a minimum of 3 cm.
To evaluate any inflammatory effect of ISIS oligonucleotides in cynomolgus monkeys, the monkeys were fasted overnight. Approximately, 1.5 mL of blood samples were collected from all the study groups on day 44. Blood was collected in tubes without anticoagulant for serum separation. The tubes were kept at room temperature for a minimum of 90 min and then centrifuged at 3,000 rpm for 10 min. C-reactive protein (CRP), which is synthesized in the liver and which serves as a marker of inflammation, was measured on day 43 using a Toshiba 120FR NEO chemistry analyzer (Toshiba Co., Japan). Complement C3 was also measured similarly, and the data is presented as a percentage of baseline values.

With “GATTTAATGGTTGCAA (cEt gapmer chemistry, further chemistry not given here) [ISIS 586124]” the “Body Wt” value [1] was 2.5 kg, the Heart weight [1] was 9.4 g and the Kidney weight [1] was 14 g. The Liver weight [1] was 58 g, the “Mesenteric lymph nodes weight” value [1] was 2.8 g and the Spleen weight [1] was 3.3 g. The ALT [2] was 56 IU/L, the AST [2] was 94 IU/L and the Albumin [2] was 3.9 g/dL. It also gave an HCT [3] of 45%, a Hemoglobin [3] of 13.6 g/dL and a Platelets [3] of 391000 µL. For the same substance, the RBC [3] was 5.8e+06 µL, the WBC [3] was 10400 µL and the “Plasma BUN” value [4] was 23.8 mg/dL. For the same substance, the “Plasma Creatinine” value [4] was 0.87 mg/dL, the Urine protein/creatinine ratio [5] was 0.01 and the “C3 (% of baseline)” value [6] was 93 % of baseline. For the same substance, the CRP [6] was 4.0 mg/dL.

For “ISIS 583918: antisense compound targeted to human AR (AGTCGCGACTCTGGTA; 3-10-3 (S)-cEt gapmer, further chemistry not given here)”, the “Body Wt” value [1] was 2.5 kg, the Heart weight [1] was 8.9 g and the Kidney weight [1] was 12 g. The Liver weight [1] was 60 g, the “Mesenteric lymph nodes weight” value [1] was 3.5 g and the Spleen weight [1] was 4.6 g. For the same substance, the ALT [2] was 75 IU/L, the AST [2] was 73 IU/L and the Albumin [2] was 4.1 g/dL. The HCT [3] was 46%, the Hemoglobin [3] was 13.3 g/dL and the Platelets [3] was 435000 µL. For the same substance, the RBC [3] was 5.8e+06 µL, the WBC [3] was 12700 µL and the “Plasma BUN” value [4] was 24.5 mg/dL. The “Plasma Creatinine” value [4] was 0.87 mg/dL, the Urine protein/creatinine ratio [5] was 0.01 and the “C3 (% of baseline)” value [6] was 89 % of baseline. The CRP [6] was 3.5 mg/dL.
